Values of other authors, collected in paper PMC10969742, “A Phase I Study of the Oral Dual-Acting Pan-PI3K/mTOR Inhibitor Bimiralisib in Patients with Advanced Solid Tumors” (Cancers, 2024).

Set-up: method as in PMID 28490463
Details: intermittent versus daily dosing; cited from earlier work

For `Nc1nc2cc(-c3ccc4ncc(C(=O)N5CCOCC5)n4c3)ccc2o1` [TAK-117], the “Safety profile of intermittent dosing” value is listed as “acceptable safety profile”.
